{
  "source": "patent US7960382B2",
  "about": "“Compounds and their use related to compositions for treating disease” (Allergan, Inc., priority 2005, dated 2011)",
  "key": {"[1]": {"assay": "Formation of the compound in a brimonidine tartrate / timolol maleate composition stored at ambient temperature (age of composition)", "type": "physicochemical", "conditions": "for Compound Concentration (% weight/vol): composition initially 0.2% brimonidine tartrate and 0.68% timolol maleate, pH 6.9, ambient temperature", "method": "The compound disclosed herein can also be used to estimate the age of a composition, stored at ambient temperature, initially comprising brimonidine tartrate and timolol maleate of known amounts and having a pH of 6.9. The age of the […] (λ) in months is determined by equation 3, where B^o, T^o, and C^o are the initial concentrations of brimonidine, timolol maleate, and the compound respectively, in % (w/v). λ=C^o/(1.1×10^−3(B^oT^o)) [eq. 3] Equation 3 is an approximation which assumes that B^o and T^o>>C^o. If that is not the case, the age is determined using the rate constant k=1.1×10^−3 month^−1%^−1 and the appropriate rate expression.\nIf the composition initially comprises 0.2% brimonidine tartrate and 0.68% timolol maleate. The age of the composition may be determined according to Table 2 below. Alternatively, up to about 36 months, the age is determined by multiplying the concentration of the compound in % (w/v) by 9100."}, "microbial attack [2]": {"system": "microbial attack", "assay": "Preservation of ophthalmic compositions from microbial attack", "conditions": "brimonidine/timolol compositions of the invention", "description": "Ophthalmic products are typically packaged in multidose form. Preservatives are thus required to prevent microbial contamination during use. Suitable preservatives include: benzalkonium chloride, thimerosal, chlorobutanol, methyl paraben, propyl paraben, phenylethyl alcohol, edetate disodium, sorbic acid, Onamer M, or other agents known to those skilled in the art. In the prior art ophthalmic products, typically such preservatives are employed at a level of from 0.004% to 0.02%. In the compositions of the present application the preservative, preferably benzalkonium chloride, may be employed at a level of from 0.001% to less than 0.01%, e.g. from 0.001% to 0.008%, preferably about 0.005% by weight. […] This concentration may be advantageously compared to the requirement of 0.01% benzalkonium chloride to preserve timolol in the individual, commercially-available ophthalmic products."}, "microbial attack [3]": {"system": "microbial attack", "conditions": "cited from earlier work"}},
  "data": [
    {"compound": "O=C(O)C1CC(=O)N2CCN=C2N1c1ccc2nccnc2c1Br", "note": "(stereo not drawn) [Compound, 8-(5-bromoquinoxalin-6-yl)-5-oxo-2,3,5,6,7,8-hexahydroimidazo[1,2-a]pyrimidine-7-carboxylic acid]", "values": [
      {"measurement": "Compound Concentration (% weight/vol)", "setting": "[1]; Age 1 month", "result": 0.0001, "unit": "% weight/vol"},
      {"measurement": "Compound Concentration (% weight/vol)", "setting": "[1]; Age 2 months", "result": 0.0002, "unit": "% weight/vol"},
      {"measurement": "Compound Concentration (% weight/vol)", "setting": "[1]; Age 3 months", "result": 0.0003, "unit": "% weight/vol"},
      {"measurement": "Compound Concentration (% weight/vol)", "setting": "[1]; Age 4 months", "result": 0.0004, "unit": "% weight/vol"},
      {"measurement": "Compound Concentration (% weight/vol)", "setting": "[1]; Age 5 months", "result": 0.0006, "unit": "% weight/vol"},
      {"measurement": "Compound Concentration (% weight/vol)", "setting": "[1]; Age 6 months", "result": 0.0007, "unit": "% weight/vol"},
      {"measurement": "Compound Concentration (% weight/vol)", "setting": "[1]; Age 7 months", "result": 0.0008, "unit": "% weight/vol"},
      {"measurement": "Compound Concentration (% weight/vol)", "setting": "[1]; Age 8 months", "result": 0.0009, "unit": "% weight/vol"},
      {"measurement": "Compound Concentration (% weight/vol)", "setting": "[1]; Age 9 months", "result": 0.001, "unit": "% weight/vol"},
      {"measurement": "Compound Concentration (% weight/vol)", "setting": "[1]; Age 10 months", "result": 0.0011, "unit": "% weight/vol"},
      {"measurement": "Compound Concentration (% weight/vol)", "setting": "[1]; Age 11 months", "result": 0.0012, "unit": "% weight/vol"},
      {"measurement": "Compound Concentration (% weight/vol)", "setting": "[1]; Age 12 months", "result": 0.0013, "unit": "% weight/vol"},
      {"measurement": "Compound Concentration (% weight/vol)", "setting": "[1]; Age 13 months", "result": 0.0014, "unit": "% weight/vol"},
      {"measurement": "Compound Concentration (% weight/vol)", "setting": "[1]; Age 14 months", "result": 0.0016, "unit": "% weight/vol"},
      {"measurement": "Compound Concentration (% weight/vol)", "setting": "[1]; Age 15 months", "result": 0.0017, "unit": "% weight/vol"},
      {"measurement": "Compound Concentration (% weight/vol)", "setting": "[1]; Age 16 months", "result": 0.0018, "unit": "% weight/vol"},
      {"measurement": "Compound Concentration (% weight/vol)", "setting": "[1]; Age 17 months", "result": 0.0019, "unit": "% weight/vol"},
      {"measurement": "Compound Concentration (% weight/vol)", "setting": "[1]; Age 18 months", "result": 0.0020, "unit": "% weight/vol"},
      {"measurement": "Compound Concentration (% weight/vol)", "setting": "[1]; Age 19 months", "result": 0.0021, "unit": "% weight/vol"},
      {"measurement": "Compound Concentration (% weight/vol)", "setting": "[1]; Age 20 months", "result": 0.0022, "unit": "% weight/vol"},
      {"measurement": "Compound Concentration (% weight/vol)", "setting": "[1]; Age 21 months", "result": 0.0023, "unit": "% weight/vol"},
      {"measurement": "Compound Concentration (% weight/vol)", "setting": "[1]; Age 22 months", "result": 0.0024, "unit": "% weight/vol"},
      {"measurement": "Compound Concentration (% weight/vol)", "setting": "[1]; Age 23 months", "result": 0.0026, "unit": "% weight/vol"},
      {"measurement": "Compound Concentration (% weight/vol)", "setting": "[1]; Age 24 months", "result": 0.0027, "unit": "% weight/vol"},
      {"measurement": "rate constant k (formation of the compound from brimonidine tartrate and timolol maleate)", "setting": "[1]; composition stored at ambient temperature, pH 6.9", "result": "1.1×10^−3 month^−1%^−1"}
    ]},
    {"compound": "benzalkonium chloride", "values": [
      {"measurement": "concentration sufficient to preserve the compositions of the present invention from microbial attack", "setting": "microbial attack [2]", "result": 0.005, "unit": "%"},
      {"measurement": "concentration required to preserve timolol in the individual, commercially-available ophthalmic products", "setting": "microbial attack [3]", "result": 0.01, "unit": "%"}
    ]}
  ]
}
